Where a name gives a salt, the structure may show the parent alone.
Assays:
[1] = target: T1, 5-HT3 binding sites in rat brain cortical membranes (Rattus norvegicus, UniProt P35563); test: inhibition of 3H-BRL 43694 (Granisetron) binding in rat entorhinal cortex membranes; conditions: read-out: 5-HT3 binding affinity, 3H-BRL 43694 IC50
T1 construct: from tissue; host or cells: rat entorhinal cortex membranes
T1 sequence (P35563 24-483): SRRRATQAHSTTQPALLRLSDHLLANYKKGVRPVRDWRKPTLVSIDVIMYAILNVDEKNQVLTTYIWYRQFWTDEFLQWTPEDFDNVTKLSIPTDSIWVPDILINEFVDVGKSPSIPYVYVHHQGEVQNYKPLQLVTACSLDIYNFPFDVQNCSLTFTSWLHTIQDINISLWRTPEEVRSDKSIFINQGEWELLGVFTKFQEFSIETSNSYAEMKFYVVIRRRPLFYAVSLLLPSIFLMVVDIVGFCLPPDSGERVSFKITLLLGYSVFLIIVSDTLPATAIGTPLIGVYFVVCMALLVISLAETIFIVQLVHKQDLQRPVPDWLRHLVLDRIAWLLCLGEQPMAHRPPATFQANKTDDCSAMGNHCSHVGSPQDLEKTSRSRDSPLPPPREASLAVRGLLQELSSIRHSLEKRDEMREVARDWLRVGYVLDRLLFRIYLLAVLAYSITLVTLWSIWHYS
Excerpt: [^3 H]-BRL 43694 (Granisetron) is a specific ligand for 5-HT3 binding sites in rat brain cortical membranes: Biochem. Pharmac. 38, 1693-1695, 1989.
The following Table II summarizes the activity data obtained in this in-vitro test for two representative compounds of the invention in comparison with compound A, i.e. a close chemically related compound falling within U.S. Pat. No. 4,134,974.
5-HT3 binding affinity for rat entorhinal

5HT3 receptor = target: T2, 5HT3 receptor (Rattus norvegicus, UniProt P35563); test: inhibition of the von Bezold-Jarisch reflex (chemoreflex) evoked by 5-HT in the anesthetised rat; type: in vivo; conditions: anesthetized rat, 5-HT 30 μg/kg i.v.; for % inhibition of the von Bezold-Jarisch reflex elicited by 5-HT: compound 100 μg/kg i.v., N=6, mean; for ED50: iv, limits printed on the line below
T2 construct: evoked by 5-HT in the anesthetised rat; from tissue; host or cells: whole anaesthetised rat (by own knowledge: cardiopulmonary vagal afferents)
T2 sequence (P35563 24-483): T1 sequence (P35563 24-483)
Method: Pharmacol. 326, 36-44 (1984).
Inhibition of the von Bezold-Jarisch reflex
elicited by 5-HT (30 μg/kg i.v.) by FCE
compounds in the anesthetized rat. Values are
mean ± in S.E.M. from N animals

Structure (SMILES)	IC50 [1]	% inhibition of the von Bezold-Jarisch reflex elicited by 5-HT (5HT3 receptor)	ED50 (5HT3 receptor)
Cc1nccn1CCN1CC2COc3ccccc3N2C1=O (stereo not shown) [Compound A, 2,3,3a,4tetrahydro-2-[2(2-methyl-imidazol-1-yl)ethyl1H-imidazo[5,1c][1,4]enzoxazin1-one hydrochloride, reference compound]	1210 nM		
Cc1[nH]cnc1CN1CC2COc3ccccc3N2C1=O (stereo not shown) [FCE 28158, 2,3,3a,4-tetrahydro-2-(5-methyl-1H-imidazol-4-yl)methyl-1H-imidazo[5,1-c][1,4]benzoxazin-1-one]	76 nM	82%	0.0236 mg/kg
Cc1[nH]cnc1CN1CC2COc3ccc(Cl)cc3N2C1=O (stereo not shown) [FCE 28609, 2,3,3a,4-tetrahydro-8-chloro-2-(5-methyl-1H-imidazol-4-yl)methyl-1H-imidazo[5,1-c][1,4]benzoxazin-1-one]	6 nM	97.5%	0.00818 mg/kg
